As usually defined, the pIC50 is −log10 of the IC50, conventionally taken in molar units.

pIC50: −log10 of the molar value. Counter-ions that a name gives are not always drawn.

The target in test [1] is T1, glycine transporter-2 (GlyT-2) (Homo sapiens, UniProt Q9Y345).
T1 construct: expressed in transfected cells
T1 sequence (Q9Y345 1-797): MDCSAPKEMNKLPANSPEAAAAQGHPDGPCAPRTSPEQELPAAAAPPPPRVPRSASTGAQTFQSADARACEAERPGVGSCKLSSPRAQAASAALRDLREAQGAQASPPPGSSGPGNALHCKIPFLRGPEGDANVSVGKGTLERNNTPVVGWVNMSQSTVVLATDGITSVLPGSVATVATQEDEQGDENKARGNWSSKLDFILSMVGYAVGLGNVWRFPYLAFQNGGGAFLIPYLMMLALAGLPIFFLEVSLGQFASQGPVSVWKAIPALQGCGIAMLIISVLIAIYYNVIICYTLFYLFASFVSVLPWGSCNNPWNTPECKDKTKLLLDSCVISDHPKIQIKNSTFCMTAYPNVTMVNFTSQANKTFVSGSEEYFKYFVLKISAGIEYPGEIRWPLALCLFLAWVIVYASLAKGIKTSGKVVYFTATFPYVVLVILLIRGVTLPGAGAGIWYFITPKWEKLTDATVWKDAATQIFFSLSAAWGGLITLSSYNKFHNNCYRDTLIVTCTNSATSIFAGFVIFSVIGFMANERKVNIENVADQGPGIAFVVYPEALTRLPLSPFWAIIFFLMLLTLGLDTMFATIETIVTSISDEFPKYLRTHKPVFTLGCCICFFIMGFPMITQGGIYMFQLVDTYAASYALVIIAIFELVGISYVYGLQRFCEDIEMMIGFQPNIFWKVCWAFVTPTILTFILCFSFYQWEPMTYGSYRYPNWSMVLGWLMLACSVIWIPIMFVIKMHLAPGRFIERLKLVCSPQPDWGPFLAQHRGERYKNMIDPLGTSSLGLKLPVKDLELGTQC
The experiment in a line: [14C]glycine uptake assay in HEK-GlyT-2 transfected cells. It is filed as cell-based. The following applies: HEK-GlyT-2 cells.

Test [2] addresses T2, glycine transporter-1 (GlyT-1) (Homo sapiens, UniProt P48067).
T2 construct: JAR cells (ATCC#HTB-144), which endogenously express GlyT-1; host or cells: JAR human choriocarcinoma cells
T2 sequence (P48067 1-706): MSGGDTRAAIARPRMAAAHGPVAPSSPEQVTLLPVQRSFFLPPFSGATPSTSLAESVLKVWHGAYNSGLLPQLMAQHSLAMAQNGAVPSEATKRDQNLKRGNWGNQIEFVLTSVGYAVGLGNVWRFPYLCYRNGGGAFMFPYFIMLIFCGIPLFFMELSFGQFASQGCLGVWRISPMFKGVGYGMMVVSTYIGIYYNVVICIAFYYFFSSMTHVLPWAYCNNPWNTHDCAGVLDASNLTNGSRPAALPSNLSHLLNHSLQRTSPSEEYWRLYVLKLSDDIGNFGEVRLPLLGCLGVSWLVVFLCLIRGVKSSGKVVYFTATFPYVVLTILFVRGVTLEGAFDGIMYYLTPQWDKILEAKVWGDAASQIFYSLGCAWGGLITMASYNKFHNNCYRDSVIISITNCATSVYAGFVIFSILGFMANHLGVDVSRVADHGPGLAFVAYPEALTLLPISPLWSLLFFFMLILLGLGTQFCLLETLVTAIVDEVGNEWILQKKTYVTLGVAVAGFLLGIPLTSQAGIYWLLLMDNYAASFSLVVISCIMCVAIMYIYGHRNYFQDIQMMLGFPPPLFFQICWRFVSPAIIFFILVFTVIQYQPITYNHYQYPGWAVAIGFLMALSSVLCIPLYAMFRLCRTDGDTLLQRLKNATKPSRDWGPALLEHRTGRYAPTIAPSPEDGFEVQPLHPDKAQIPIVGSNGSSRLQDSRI
Kind of test: [14C]glycine uptake assay in JAR cells endogenously expressing GlyT-1 (scintillation proximity). It is filed as cell-based. To be noted: JAR cells, [14C]glycine 5 μM, 3 hour incubation; read-out: GlyT-1 IC50. The gist of the method: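 IC50 comes from a four-parameter fit of nine-point, duplicate curves measuring inhibition of 5 μM [14C]glycine uptake, read by scintillation proximity after 3 h at 37 °C. Cells are human JAR, which express GlyT-1 endogenously, given 10 min compound pre-treatment in pH 7.4 buffer with 5 mM alanine and 0.75% DMSO.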

`Cn1cc(S(=O)(=O)N2CCN(C3(CNC(=O)c4cc(F)c(Cl)cc4Cl)CCC(F)(F)CC3)CC2)nn1` [compound 231, 2,4-Dichloro-N-((4,4-difluoro-1-(4-(1-methyl-1H-1,2,3-triazol-4-ylsulfonyl)piperazin-1-yl)cyclohexyl)methyl)-5-fluorobenzamide Hydrochloride]: the pIC50 in test [1] is less than 4.12; in test [2] it was 9.00.
For `CCCS(=O)(=O)N1CCN(C2(CNC(=O)c3ccc(Br)cc3)CCCCC2)CC1` [compound 11, 4-Bromo-N-((1-(4-(propylsulfonyl)piperazin-1-yl)cyclohexyl)methyl) benzamide Hydrochloride] the same measures were less than 4.12 and 6.65.
For `CCCS(=O)(=O)N1CCN(C2(CNC(=O)c3ccccc3OC(F)(F)F)CCCCC2)CC1` [compound 4, N-((1-(4-(Propylsulfonyl)piperazin-1-yl)cyclohexyl)methyl)-2-(trifluoromethoxy) benzamide Hydrochloride] the same measures were 4.41 and 7.66.
For `O=C(NCC1(N2CCN(S(=O)(=O)CC3CC3)CC2)CCCCC1)c1c(F)cccc1F` [compound 81, N-((1-(4-(Cyclopropylmethyl-sulfonyl)piperazin-1-yl)cyclohexyl)methyl)-2,6-difluorobenzamide Hydrochloride] the same measures were less than 4.12 and 7.21.
On to `CCCS(=O)(=O)N1CCN(C2(CNC(=O)c3c(C)cccc3C)CCOCC2)CC1` [compound 120, 2,6-Dimethyl-N-((4-(4-(propylsulfonyl)piperazin-1-yl)tetrahydro-2H-pyran-4-yl)methyl)benzamide Hydrochloride], for which the figures for the pIC50 in test [1] and in test [2] were 4.38 and 6.76, respectively.
On to `CCCS(=O)(=O)N1CCN(C2(CNC(=O)c3ccccc3C(F)(F)F)CCCCC2)CC1` [compound 50, N-((1-(4-(Propylsulfonyl)piperazin-1-yl)cyclohexyl)methyl)-2-(trifluoromethyl)benzamide Hydrochloride], for which the pIC50 in test [1] was less than 4.12; in test [2] it was 7.32.
Consider `CCCS(=O)(=O)N1CCN(C2(CNC(=O)c3ccc(F)cc3OC)CCCCC2)CC1` [compound 46, 4-Fluoro-2-methoxy-N-((1-(4-(propyl-sulfonyl)piperazin-1-yl)cyclohexyl)methyl) benzamide Hydrochloride], for which the pIC50 in test [1] was less than 4.12; in test [2], 6.45.
Take `O=C(NCC1(N2CCN(S(=O)(=O)CC3CC3)CC2)CCCOC1)c1c(F)cccc1F` (stereo not drawn) [compound 126, N-((3-(4-(Cyclopropylmethyl-sulfonyl)piperazin-1-yl)tetrahydro-2H-pyran-3-yl)methyl)-2,6-difluorobenzamide Hydrochloride]: the pIC50 is less than 4.12 in test [1] and 6.14 in test [2].
On to `CCCS(=O)(=O)N1CCN(C2(CNC(=O)c3c(N)cccc3Cl)CCCCCC2)CC1` [compound 56, 2-Amino-6-chloro-N-((1-(4-(propylsulfonyl)piperazin-1-yl)cycloheptyl)methyl) benzamide Hydrochloride], for which the pIC50 in test [1] is 4.41; in test [2] it was 8.22.
Consider `CCCS(=O)(=O)N1CCN(C2(CNC(=O)c3ccc(OC)cc3)CCCCC2)CC1` [compound 23, 4-Methoxy-N-((1-(4-(propylsulfonyl)piperazin-1-yl)cyclohexyl)methyl) benzamide Hydrochloride], for which the figures for the pIC50 in test [1] and in test [2] were 4.21 and 5.94, respectively.
On to `CCCS(=O)(=O)N1CCN(C2(CNC(=O)c3c(C)cc(F)cc3OC)CCCC2)CC1` [compound 75, 4-Fluoro-2-methoxy-6-methyl-N-((1-(4-(propylsulfonyl)piperazin-1-yl)cyclopentyl)methyl) benzamide Hydrochloride], for which the pIC50 in test [1] is less than 4.12; in test [2], 6.57.
For `CCCS(=O)(=O)N1CCN(C2(CNC(=O)c3c(OC)cc(F)cc3SC)CCCC2)CC1` [compound 74, 4-Fluoro-2-methoxy-6-(methylthio)-N-((1-(4-(propylsulfonyl)piperazin-1-yl)cyclopentyl)methyl) benzamide Hydrochloride] the same measures were less than 4.12 and 6.88.
Take `Cn1cc(S(=O)(=O)N2CCN(C3(CNC(=O)c4c(F)cc(Cl)cc4F)CCC(F)(F)CC3)CC2)nn1` [compound 230, 4-Chloro-N-((4,4-difluoro-1-(4-(1-methyl-1H-1,2,3-triazol-4-ylsulfonyl)piperazin-1-yl)cyclohexyl)methyl)-2,6-difluorobenzamide Hydrochloride]: the pIC50 in test [1] is less than 4.12; in test [2] it was 8.52.
In the case of `CCCS(=O)(=O)N1CCN(C2(CNC(=O)c3c(C)cc(F)cc3OC)CCCCC2)CC1` [compound 19, 4-Fluoro-2-methoxy-6-methyl-N-((1-(4-(propyl-sulfonyl)piperazin-1-yl)cyclohexyl)methyl) benzamide Hydrochloride], the pIC50 is 4.41 in test [1] and 7.82 in test [2].
The corresponding values for `COc1cccc(F)c1C(=O)NCC1(N2CCN(S(=O)(=O)CC3CC3)CC2)CCCCC1` [compound 83, N-((1-(4-(Cyclopropylmethyl-sulfonyl)piperazin-1-yl)cyclohexyl)methyl)-2-fluoro-6-methoxybenzamide Hydrochloride] are less than 4.12 and 7.24.
`Cn1cc(S(=O)(=O)N2CCN(C3(CNC(=O)c4ccc(Cl)cc4Cl)CCCC3)CC2)nn1` [compound 110, 2,4-Dichloro-N-((1-(4-(1-methyl-1H-1,2,3-triazol-4-ylsulfonyl)piperazin-1-yl)cyclopentyl)methyl) benzamide Hydrochloride]: the figures for the pIC50 in test [1] and in test [2] were less than 4.12 and 7.57, respectively.
For the molecule `CCCS(=O)(=O)N1CCN(C2(CNC(=O)c3ccc(F)cc3F)CCCCC2)CC1` [compound 39, 2,4-Difluoro-N-((1-(4-(propylsulfonyl)piperazin-1-yl)cyclohexyl)methyl) benzamide Hydrochloride], the values for the pIC50 in test [1] and in test [2] were not above 4.12 and 6.88, respectively.
`CCCS(=O)(=O)N1CCN(C2(CNC(=O)c3c(C(F)(F)F)ccc(Cl)c3F)CCCCC2)CC1` [compound 5, 3-Chloro-2-fluoro-N-((1-(4-(propylsulfonyl)piperazin-1-yl)cyclohexyl)methyl)-6-(trifluoromethyl)benzamide Hydrochloride]: the negative logarithm of the IC50 (pIC50) in test [1] was not above 4.12; in test [2], 7.37.
In the case of `CCCS(=O)(=O)N1CCN(C2(CNC(=O)c3ccc(F)cc3OC)CCCCCC2)CC1` [compound 52, 4-Fluoro-2-methoxy-N-((1-(4-(propylsulfonyl)piperazin-1-yl)cycloheptyl)methyl) benzamide Hydrochloride], the pIC50 in test [1] is less than 4.12; in test [2], 6.39.
Take `CCCS(=O)(=O)N1CCN(C2(CNC(=O)c3c(F)cccc3OC)CCOCC2)CC1` [compound 123, 2-Fluoro-6-methoxy-N-((4-(4-(propyl-sulfonyl)piperazin-1-yl)tetrahydro-2H-pyran-4-yl)methyl)benzamide Hydrochloride]: the pIC50 in test [1] was less than 4.12; in test [2] it was 6.38.
`Cn1cc(S(=O)(=O)N2CCN(C3(CNC(=O)c4ccc(Cl)cc4Cl)CCOCC3)CC2)nn1` [compound 129, 2,4-Dichloro-N-((4-(4-(1-methyl-1H-1,2,3-triazol-4-ylsulfonyl)piperazin-1-yl)tetrahydro-2H-pyran-4-yl)methyl)benzamide Hydrochloride]: the negative-log IC50 (pIC50) in test [1] is less than 4.12; in test [2], 7.96.

Source of the values: patent US9045445B2, “Glycine transporter-1 inhibitors, methods of making them, and uses thereof” (Albany Molecular Research, Inc., priority 2010, dated 2015).
